Data on 27 compounds can be found in patent publication US20230192686A1, “1H-PYRROLO[2,3-B]PYRIDINES AND PREPARATION AND USES THEREOF” (BioSplice Therapeutics, Inc., priority 2021, published 2023).

Each structure is given as a SMILES string.

The assay addresses recombinant DYRK1A kinase (Homo sapiens, UniProt Q13627). Briefly: DYRK1A kinase assay (Ser/Thr 18 peptide Z-lyte FRET). The class given is biochemical. As to conditions: DYRK1A kinase activity; 15 μM ATP, 4 μM Ser/Thr peptide 18, one hour at room temperature. Summed up:
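Recombinant DYRK1A at 0.25 μg/mL was incubated 1 h at room temperature with 15 μM ATP, 4 μM Ser/Thr 18 peptide and compound, in duplicate, 11-point series from 10 μM. Phosphorylation was read by Z-lyte FRET after 1 h protease development, as the coumarin/fluorescein emission ratio converted to % phosphorylation. IC50 by non-linear regression.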
Consider `c1cnc2[nH]cc(-c3ccc4nccnc4c3)c2c1` [Compound 90, 6-(1H-Pyrrolo[2,3-b]pyridin-3-yl)quinoxaline], for which the EC50 amounted to 3 nM. Take `CN1CCC(Oc2cnc3ccc(-c4c[nH]c5ncccc45)cc3n2)CC1` [Compound 91, 2-((1-Methylpiperidin-4-yl)oxy)-7-(1H-pyrrolo[2,3-b]pyridin-3-yl) quinoxaline]: the EC50 worked out at 3 nM. For `CN1CCN(c2ncnc3ccc(-c4c[nH]c5ncccc45)cc23)CC1` [Compound 95, 4-(4-Methylpiperazin-1-yl)-6-(1H-pyrrolo[2,3-b]pyridin-3-yl) quinazoline], the 50% effective concentration (EC50) turned out to be 2 nM. Next, `c1cnc2[nH]cc(-c3ccc4ncnc(N5CCNC6(CC6)C5)c4c3)c2c1` [Compound 96, 6-(1H-Pyrrolo[2,3-b]pyridin-3-yl)-4-(4,7-diazaspiro[2.5]octan-7-yl) quinazoline]: 1 nM; `c1cnc2[nH]cc(-c3ccc4ncnc(N5CCNC6(CCC6)C5)c4c3)c2c1` [Compound 97, 6-(1H-Pyrrolo[2,3-b]pyridin-3-yl)-4-(5,8-diazaspiro[3.5]nonan-8-yl) quinazoline]: 2 nM; `c1cnc2[nH]cc(-c3ccc4ncnc(N5CCNC6(CCCC6)C5)c4c3)c2c1` [Compound 98, 9-(6-(1H-Pyrrolo[2,3-b]pyridin-3-yl)quinazolin-4-yl)-6,9-diazaspiro [4.5]decane]: 2 nM. As to `CN1CCC(Oc2ncnc3ccc(-c4c[nH]c5ncccc45)cc23)CC1` [Compound 99, 4-((1-Methylpiperidin-4-yl)oxy)-6-(1H-pyrrolo[2,3-b]pyridin-3-yl) quinazoline], the EC50 worked out at 2 nM.

Regarding `CN1CCC(Nc2ncnc3ccc(-c4c[nH]c5ncccc45)cc23)CC1` [Compound 100, N-(1-Methylpiperidin-4-yl)-6-(1H-pyrrolo[2,3-b]pyridin-3-yl) quinazolin-4-amine], the EC50 amounted to 6 nM. For `COc1ccc(Nc2ncnc3ccc(-c4c[nH]c5ncccc45)cc23)cn1` [Compound 101, N-(6-Methoxypyridin-3-yl)-6-(1H-pyrrolo[2,3-b]pyridin-3-yl) quinazolin-4-amine], the EC50 amounted to 6 nM. For the compound `CN1CCC(Oc2ccc(Nc3ncnc4ccc(-c5c[nH]c6ncccc56)cc34)cn2)CC1` [Compound 102, N-(6-((1-Methylpiperidin-4-yl)oxy)pyridin-3-yl)-6-(1H-pyrrolo[2,3-b]pyridin-3-yl)quinazolin-4-amine], the EC50 is 2 nM. With `c1cncc(CNc2ncnc3ccc(-c4c[nH]c5ncccc45)cc23)c1` [Compound 103, N-(Pyridin-3-ylmethyl)-6-(1H-pyrrolo[2,3-b]pyridin-3-yl)quinazolin-4-amine], the EC50 turned out to be 1 nM. As for `CN1CCN(c2ccc(CNc3ncnc4ccc(-c5c[nH]c6ncccc56)cc34)cn2)CC1` [Compound 104, N-((6-(4-Methylpiperazin-1-yl)pyridin-3-yl)methyl)-6-(1H-pyrrolo[2,3-b]pyridin-3-yl)quinazolin-4-amine], the EC50 came to 11 nM. Consider `CN1CCN(c2cc(CNc3ncnc4ccc(-c5c[nH]c6ncccc56)cc34)ccn2)CC1` [Compound 105, N-((2-(4-Methylpiperazin-1-yl)pyridin-4-yl)methyl)-6-(1H-pyrrolo [2,3-b]pyridin-3-yl)quinazolin-4-amine], for which the EC50 was 4 nM.

Regarding `CN1CCC(NC(=O)c2ncnc3ccc(-c4c[nH]c5ncccc45)cc23)CC1` [Compound 106, N-(1-Methylpiperidin-4-yl)-6-(1H-pyrrolo[2,3-b]pyridin-3-yl) quinazoline-4-carboxamide], the EC50 worked out at 3 nM. Next, `O=C(c1ncnc2ccc(-c3c[nH]c4ncccc34)cc12)N1CCNC2(CC2)C1` [Compound 108, (6-(1H-Pyrrolo[2,3-b]pyridin-3-yl)quinazolin-4-yl)(4,7-diazaspiro [2.5]octan-7-yl)methanone]: 52 nM; `COc1ccnc2[nH]cc(-c3ccn4ncc(C(=O)NC5CCN(C)CC5)c4c3)c12` [Compound 128, 5-(4-Methoxy-1H-pyrrolo[2,3-b]pyridin-3-yl)-N-(1-methylpiperidin-4-yl)pyrazolo[1,5-a]pyridine-3-carboxamide]: 1 nM. For `Cn1cc(-c2ccnc3[nH]cc(-c4ccc5ncccc5c4)c23)cn1` [Compound 186, 6-(4-(1-methyl-1H-pyrazol-4-yl)-1H-pyrrolo[2,3-b]pyridin-3-yl) quinoline], the EC50 came to 10 nM. In the case of `O=C1CC2(CCNCC2)Oc2cc(-c3c[nH]c4ncc(Cl)cc34)ccc21` [Compound 226, 7-(5-Chloro-1H-pyrrolo[2,3-b]pyridin-3-yl)spiro[chromane-2,4′-piperidin]-4-one], the EC50 is 36 nM.

With `CN1CCN(C(=O)c2cnn3ccc(-c4c[nH]c5ncc(F)cc45)cc23)CC1` [Compound 257, (5-(5-Fluoro-1H-pyrrolo[2,3-b]pyridin-3-yl)pyrazolo[1,5-a]pyridin-3-yl)(4-methylpiperazin-1-yl)methanone], the EC50 was determined as 16 nM. With `Cc1cnc2[nH]cc(-c3ccc4nccn4c3)c2c1` [Compound 280, 6-(5-methyl-1H-pyrrolo[2,3-b]pyridin-3-yl)imidazo[1,2-a]pyridine], the EC50 was determined as 4 nM. On to `Cc1nc2c(F)cc(-c3c[nH]c4ncc(C5=CCN(C)CC5)cc34)cc2n1C(C)C` [Compound 325, 4-Fluoro-1-isopropyl-2-methyl-6-(5-(1-methyl-1,2,3,6-tetrahydropyridin-4-yl)-1H-pyrrolo[2,3-b]pyridin-3-yl)-1H-benzo[d]imidazole], for which the EC50 was 2 nM. With `Cc1nc2c(F)cc(-c3c[nH]c4ncc(N5CCN(C)CC5)cc34)cc2n1C(C)C` [Compound 367, 4-Fluoro-1-isopropyl-2-methyl-6-(5-(4-methylpiperazin-1-yl)-1H-pyrrolo[2,3-b]pyridin-3-yl)-1H-benzo[d]imidazole], the EC50 is 2 nM.

Take `Cc1nc2c(F)cc(-c3c[nH]c4ncc(CN5CCN(C)CC5)cc34)cc2n1C(C)C` [Compound 409, 4-Fluoro-1-isopropyl-2-methyl-6-(5-((4-methylpiperazin-1-yl)methyl)-1H-pyrrolo[2,3-b]pyridin-3-yl)-1H-benzo[d]imidazole]: the EC50 was 13 nM.

In the case of `CN1CCN(Cc2cnc3[nH]cc(-c4ccc5c(c4)C(C)(C)CNC5=O)c3c2)CC1` [Compound 435, 4,4-dimethyl-6-(5-((4-methylpiperazin-1-yl)methyl)-1H-pyrrolo[2,3-b]pyridin-3-yl)-3,4-dihydroisoquinolin-1(2H)-one], the EC50 was 96 nM. Regarding `CN1CCN(Cc2cnc3[nH]cc(-c4ccc5nccnc5c4)c3c2)CC1` [Compound 439, 6-(5-((4-Methylpiperazin-1-yl)methyl)-1H-pyrrolo[2,3-b]pyridin-3-yl) quinoxaline], the EC50 stood at 16 nM.

As for `Cc1nc2c(F)cc(-c3c[nH]c4ncc(C(=O)NC5CCN(C)CC5)cc34)cc2n1C(C)C` [Compound 451, 3-(4-Fluoro-1-isopropyl-2-methyl-1H-benzo[d]imidazol-6-yl)-N-(1-methylpiperidin-4-yl)-1H-pyrrolo[2,3-b]pyridine-5-carboxamide], the EC50 was 4 nM. As to `CN1CCC(NC(=O)c2cnc3[nH]cc(-c4ccc5ncncc5c4)c3c2)CC1` [Compound 482, N-(1-Methylpiperidin-4-yl)-3-(quinazolin-6-yl)-1H-pyrrolo[2,3-b] pyridine-5-carboxamide], the EC50 was 15 nM.

As usually defined, the EC50 is the concentration needed to bring the measured effect to its halfway point.
